In US12077537B2 (Gilead Sciences, Inc., priority 2020, dated 2024):

Each molecule was assayed on HIV-IIIb (assay: Antiviral assay in MT4 cells). Settings: Human immunodeficiency virus 1, MT4, 120 h; MT-4 cells mixed with HIV-IIIb at m.o.i. 0.003; 5 days at 37° C.; CellTiter-Glo luminescence; 50% decrease in signal, a measure of HIV-1 replication.
Type: cell-based
Protocol: Antiviral Assay in MT4 Cells For the antiviral assay, 40 μL of a concentration required to achieve a final effective 1× test concentration of 3-fold serially diluted compound in culture medium with 10% FBS was added to each well of a 384-well plate (10 concentrations) in quadruplicate. MT-4 cells were next mixed with HIV-IIIb at an m.o.i of 0.003 for 1 hour, after which time 35 μL of virus/cell mixture (2000 cells) was immediately added to each well containing 40 μL of diluted compound. The plates were then incubated at 37° C. for 5 days. After 5 days of incubation, 25 μl of 2× concentrated CellTiter-Glom Reagent (catalog #G7571, Promega Biosciences, Inc., Madison, WI) was added to each well containing MT-4 cells. Cell lysis was carried out by incubating at room temperature for 10 min and then chemiluminescence was read.
For `Cc1[nH]c2ccccc2c1CC(=O)N[C@@H](Cc1ccccc1)c1nc2ccccc2n1-c1ccccc1` [Compound 2, (S)-2-(2-methyl-1H-indol-3-yl)-N-(2-phenyl-1-(1-phenyl-1H-benzo[d]imidazol-2-yl)ethyl)acetamide], the EC50 was 29700 nM.
Work on `NC(=O)c1cc(-c2cc3sc(N4CCOCC4)nc3nc2[C@H](Cc2cc(F)cc(F)c2)NC(=O)Cn2nc(C(F)F)c3c2C(F)(F)CCC3(F)F)ccc1F` [Compound 3, (S)-5-(5-(1-(2-(3-(difluoromethyl)-4,4,7,7-tetrafluoro-4,5,6,7-tetrahydro-1H-indazol-1-yl)acetamido)-2-(3,5-difluorophenyl)ethyl)-2-morpholinothiazolo[4,5-b]pyridin-6-yl)-2-fluorobenzamide] yielded an EC50 of 160 nM.
For `COCCOCCNc1nc2nc([C@H](Cc3cc(F)cc(F)c3)NC(=O)Cn3nc(C(F)F)c4c3C(F)(F)CCC4(F)F)c(-c3ccc(F)c(C(N)=O)c3)cc2s1` [Compound 4, (S)-5-(5-(1-(2-(3-(difluoromethyl)-4,4,7,7-tetrafluoro-4,5,6,7-tetrahydro-1H-indazol-1-yl)acetamido)-2-(3,5-difluorophenyl)ethyl)-2-((2-(2-methoxyethoxy)ethyl)amino)thiazolo[4,5-b]pyridin-6-yl)-2-fluorobenzamide], the EC50 was 154 nM.
`NC(=O)c1cc(-c2cc3sc(N4CCN(C5COC5)CC4)nc3nc2[C@H](Cc2cc(F)cc(F)c2)NC(=O)Cn2nc(C(F)F)c3c2C(F)(F)CCC3(F)F)ccc1F` [Compound 5] showed an EC50 of 76.9 nM.
Molecule `CC(C)(O)CNc1nc2nc([C@H](Cc3cc(F)cc(F)c3)NC(=O)Cn3nc(C(F)F)c4c3C(F)(F)CCC4(F)F)c(-c3ccc(F)c(C(N)=O)c3)cc2s1` [Compound 6, (S)-5-(5-(1-(2-(3-(difluoromethyl)-4,4,7,7-tetrafluoro-4,5,6,7-tetrahydro-1H-indazol-1-yl)acetamido)-2-(3,5-difluorophenyl)ethyl)-2-((2-hydroxy-2-methylpropyl)amino)thiazolo[4,5-b]pyridin-6-yl)-2-fluorobenzamide] has an EC50 of 98.6 nM.
Work on `CN1CCN(c2nc3nc([C@H](Cc4cc(F)cc(F)c4)NC(=O)Cn4nc(C(F)F)c5c4C(F)(F)CCC5(F)F)c(-c4ccc(F)c(C(N)=O)c4)cc3s2)CC1` [Compound 7, (S)-5-(5-(1-(2-(3-(difluoromethyl)-4,4,7,7-tetrafluoro-4,5,6,7-tetrahydro-1H-indazol-1-yl)acetamido)-2-(3,5-difluorophenyl)ethyl)-2-(4-methylpiperazin-1-yl)thiazolo[4,5-b]pyridin-6-yl)-2-fluorobenzamide] yielded an EC50 of 127 nM.
Molecule `NC(=O)c1cc(-c2cc3sc(NCCN4CCOCC4)nc3nc2[C@H](Cc2cc(F)cc(F)c2)NC(=O)Cn2nc(C(F)F)c3c2C(F)(F)CCC3(F)F)ccc1F` [Compound 8, (S)-5-(5-(1-(2-(3-(difluoromethyl)-4,4,7,7-tetrafluoro-4,5,6,7-tetrahydro-1H-indazol-1-yl)acetamido)-2-(3,5-difluorophenyl)ethyl)-2-((2-morpholinoethyl)amino)thiazolo[4,5-b]pyridin-6-yl)-2-fluorobenzamide] has an EC50 of 162 nM.
`NC(=O)c1cc(-c2cc3sc(NC4CCOC4)nc3nc2[C@H](Cc2cc(F)cc(F)c2)NC(=O)Cn2nc(C(F)F)c3c2C(F)(F)CCC3(F)F)ccc1F` (stereo partly drawn) [Compound 9, 5-(5-((S)-1-(2-(3-(difluoromethyl)-4,4,7,7-tetrafluoro-4,5,6,7-tetrahydro-1H-indazol-1-yl)acetamido)-2-(3,5-difluorophenyl)ethyl)-2-((tetrahydrofuran-3-yl)amino)thiazolo[4,5-b]pyridin-6-yl)-2-fluorobenzamide] was tested, and the EC50 was 266 nM.
For `NC(=O)c1cc(-c2cc3sc(NC4COC4)nc3nc2[C@H](Cc2cc(F)cc(F)c2)NC(=O)Cn2nc(C(F)F)c3c2C(F)(F)CCC3(F)F)ccc1F` [Compound 10, (S)-5-(5-(1-(2-(3-(difluoromethyl)-4,4,7,7-tetrafluoro-4,5,6,7-tetrahydro-1H-indazol-1-yl)acetamido)-2-(3,5-difluorophenyl)ethyl)-2-(oxetan-3-ylamino)thiazolo[4,5-b]pyridin-6-yl)-2-fluorobenzamide], the EC50 was 384 nM.
`CC1(O)CN(c2nc3nc([C@H](Cc4cc(F)cc(F)c4)NC(=O)Cn4nc(C(F)F)c5c4C(F)(F)CCC5(F)F)c(-c4ccc(F)c(C(N)=O)c4)cc3s2)C1` [Compound 11, (S)-5-(5-(1-(2-(3-(difluoromethyl)-4,4,7,7-tetrafluoro-4,5,6,7-tetrahydro-1H-indazol-1-yl)acetamido)-2-(3,5-difluorophenyl)ethyl)-2-(3-hydroxy-3-methylazetidin-1-yl)thiazolo[4,5-b]pyridin-6-yl)-2-fluorobenzamide] was tested, and the EC50 was 162 nM.
For `COCCNc1nc2nc([C@H](Cc3cc(F)cc(F)c3)NC(=O)Cn3nc(C(F)F)c4c3C(F)(F)CCC4(F)F)c(-c3ccc(F)c(C(N)=O)c3)cc2s1` [Compound 12, (S)-5-(5-(1-(2-(3-(difluoromethyl)-4,4,7,7-tetrafluoro-4,5,6,7-tetrahydro-1H-indazol-1-yl)acetamido)-2-(3,5-difluorophenyl)ethyl)-2-((2-methoxyethyl)amino)thiazolo[4,5-b]pyridin-6-yl)-2-fluorobenzamide], the EC50 was 158 nM.
`NC(=O)c1cc(-c2cc3sc(N4CC5(COC5)C4)nc3nc2[C@H](Cc2cc(F)cc(F)c2)NC(=O)Cn2nc(C(F)F)c3c2C(F)(F)CCC3(F)F)ccc1F` [Compound 13, (S)-5-(5-(1-(2-(3-(difluoromethyl)-4,4,7,7-tetrafluoro-4,5,6,7-tetrahydro-TH-indazol-1-yl)acetamido)-2-(3,5-difluorophenyl)ethyl)-2-(2-oxa-6-azaspiro[3.3]heptan-6-yl)thiazolo[4,5-b]pyridin-6-yl)-2-fluorobenzamide] gave an EC50 of 126 nM.
In the case of `NC(=O)c1cc(-c2cc3sc(O)nc3nc2[C@H](Cc2cc(F)cc(F)c2)NC(=O)Cn2nc(C(F)F)c3c2C(F)(F)CCC3(F)F)ccc1F` [Compound 15-1, (S)-5-(5-(1-(2-(3-(difluoromethyl)-4,4,7,7-tetrafluoro-4,5,6,7-tetrahydro-1H-indazol-1-yl)acetamido)-2-(3,5-difluorophenyl)ethyl)-2-hydroxythiazolo[4,5-b]pyridin-6-yl)-2-fluorobenzamide], the EC50 is reported as 318 nM.
With `NC(=O)c1cc(-c2cc3scnc3nc2[C@H](Cc2cc(F)cc(F)c2)NC(=O)Cn2nc(C(F)F)c3c2C(F)(F)CCC3(F)F)ccc1F` [Compound 15-2, (S)-5-(5-(1-(2-(3-(difluoromethyl)-4,4,7,7-tetrafluoro-4,5,6,7-tetrahydro-1H-indazol-1-yl)acetamido)-2-(3,5-difluorophenyl)ethyl)thiazolo[4,5-b]pyridin-6-yl)-2-fluorobenzamide] the EC50 was 326 nM.
For `N#Cc1cc(-c2cc3scnc3nc2[C@H](Cc2cc(F)cc(F)c2)NC(=O)Cn2nc(C(F)F)c3c2C(F)(F)CCC3(F)F)ccc1F` [Compound 15E, (S)—N-(1-(6-(3-cyano-4-fluorophenyl)thiazolo[4,5-b]pyridin-5-yl)-2-(3,5-difluorophenyl)ethyl)-2-(3-(difluoromethyl)-4,4,7,7-tetrafluoro-4,5,6,7-tetrahydro-1H-indazol-1-yl)acetamide], the EC50 was 2640 nM.
Work on `O=C(Cn1nc(C(F)F)c2c1C(F)(F)CCC2(F)F)N[C@@H](Cc1cc(F)cc(F)c1)c1nc2ncsc2cc1-c1ccc(F)cc1` [Compound 16, (S)-2-(3-(difluoromethyl)-4,4,7,7-tetrafluoro-4,5,6,7-tetrahydro-1H-indazol-1-yl)-N-(2-(3,5-difluorophenyl)-1-(6-(4-fluorophenyl)thiazolo[4,5-b]pyridin-5-yl)ethyl)acetamide] yielded an EC50 of 1020 nM.
Molecule `O=C(Cn1nc(C(F)F)c2c1C(F)(F)CCC2(F)F)N[C@H](Cc1cc(F)cc(F)c1)c1nc2ncsc2cc1-c1ccc(F)cc1` [Compound 17, (R)-2-(3-(difluoromethyl)-4,4,7,7-tetrafluoro-4,5,6,7-tetrahydro-1H-indazol-1-yl)-N-(2-(3,5-difluorophenyl)-1-(6-(4-fluorophenyl)thiazolo[4,5-b]pyridin-5-yl)ethyl)acetamide] has an EC50 of 7990 nM.
`NC(=O)c1cc(-c2cc3sc(N4CCOCC4)nc3nc2C(Cc2cc(F)cc(F)c2)NC(=O)Cn2nc(C(F)F)c3c2C(F)(F)CCC3(F)F)ccc1F` (centres unmarked) [Compound 18, 5-(5-(1-(2-(3-(difluoromethyl)-4,4,7,7-tetrafluoro-4,5,6,7-tetrahydro-1H-indazol-1-yl)acetamido)-2-(3,5-difluorophenyl)ethyl)-2-morpholinothiazolo[4,5-b]pyridin-6-yl)-2-fluorobenzamide] was tested, and the EC50 was 254 nM.
In the case of `Cc1cc(Nc2nc3nc(C(Cc4cc(F)cc(F)c4)NC(=O)Cn4nc(C(F)F)c5c4C(F)(F)CCC5(F)F)c(-c4ccc(F)c(C(N)=O)c4)cc3s2)[nH]n1` (centres unmarked) [Compound 19, 5-(5-(1-(2-(3-(difluoromethyl)-4,4,7,7-tetrafluoro-4,5,6,7-tetrahydro-1H-indazol-1-yl)acetamido)-2-(3,5-difluorophenyl)ethyl)-2-((3-methyl-1H-pyrazol-5-yl)amino)thiazolo[4,5-b]pyridin-6-yl)-2-fluorobenzamide], the EC50 is reported as 1050 nM.
In the case of `CN(C)CCNc1nc2nc(C(Cc3cc(F)cc(F)c3)NC(=O)Cn3nc(C(F)F)c4c3C(F)(F)CCC4(F)F)c(-c3ccc(F)c(C(N)=O)c3)cc2s1` (centres unmarked) [Compound 20, 5-(5-(1-(2-(3-(difluoromethyl)-4,4,7,7-tetrafluoro-4,5,6,7-tetrahydro-TH-indazol-1-yl)acetamido)-2-(3,5-difluorophenyl)ethyl)-2-((2-(dimethylamino)ethyl)amino)thiazolo[4,5-b]pyridin-6-yl)-2-fluorobenzamide], the EC50 is reported as 303 nM.
